Read-outs that look alike come from different tables or passages of the source.
Columns and labels:
Assay type in all cases: biochemical
c-Met = target: T1, c-Met (Homo sapiens, UniProt P08581); test: Kinase inhibition assay (33P transfer), c-Met; settings: Table 2, kinase inhibition class; for IC50: read-out: Met-1
T1 construct: Kinases are expressed as either kinase domains or full length constructs; made in house
Summary of the method: (§1)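 IC50: inhibitor concentration lowering 33P incorporation into immobilised substrate by 50%. Label transferred from ATP to poly(Glu,Tyr) 4:1 or poly(Arg,Ser) 3:1 is measured after a 0.5% phosphoric acid wash by liquid scintillation.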

IGFR-1 = target: T2, IGFR-1 (Homo sapiens, UniProt P08069); test: Kinase inhibition assay, IGFR-1 (Table 2); settings: Table 2, kinase inhibition class
T2 construct: Kinases are expressed as either kinase domains or full length constructs; made in house

ErbB2 = target: T3, ErbB2 (Homo sapiens, UniProt P04626); test: Kinase inhibition assay (33P transfer), ErbB2; settings: for IC50: read-out: ErbB2-2
T3 construct: Kinases are expressed as either kinase domains or full length constructs; made in house
Summary of the method: as §1

AKT = target: T4, AKT (Homo sapiens, UniProt Q9Y243); test: Kinase inhibition assay (33P transfer), AKT; settings: Table 2, kinase inhibition class; for IC50: read-out: AKT3-1
T4 construct: Kinases are expressed as either kinase domains or full length constructs; made in house
T4 sequence (Q9Y243 whole entry, the tested form may be a part): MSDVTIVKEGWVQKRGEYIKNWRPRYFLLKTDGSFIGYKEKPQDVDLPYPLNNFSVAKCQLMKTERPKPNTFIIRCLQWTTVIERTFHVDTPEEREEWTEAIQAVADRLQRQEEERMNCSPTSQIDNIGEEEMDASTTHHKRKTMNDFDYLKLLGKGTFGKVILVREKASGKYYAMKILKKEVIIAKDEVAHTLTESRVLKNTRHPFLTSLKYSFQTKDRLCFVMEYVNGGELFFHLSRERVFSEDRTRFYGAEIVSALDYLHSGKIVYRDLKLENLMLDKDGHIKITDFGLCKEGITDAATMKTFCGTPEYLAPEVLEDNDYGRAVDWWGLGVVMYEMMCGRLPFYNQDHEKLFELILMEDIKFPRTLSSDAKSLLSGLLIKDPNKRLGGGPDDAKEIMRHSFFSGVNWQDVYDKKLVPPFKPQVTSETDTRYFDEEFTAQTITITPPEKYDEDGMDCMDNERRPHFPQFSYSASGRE
Summary of the method: (§2)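 Liquid scintillation counting of 33P on plate-bound synthetic substrates gives kinase activity. Plates are washed in 0.5% phosphoric acid first; kinases are tagged recombinant proteins from E. coli or baculovirus-infected High Five cells.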

Itk = target: T5, Itk (Homo sapiens, UniProt Q08881); test: Kinase inhibition assay (33P transfer), Itk; settings: for IC50: read-out: Itk-1
T5 construct: Kinases are expressed as either kinase domains or full length constructs; made in house
T5 sequence (Q08881 1-620): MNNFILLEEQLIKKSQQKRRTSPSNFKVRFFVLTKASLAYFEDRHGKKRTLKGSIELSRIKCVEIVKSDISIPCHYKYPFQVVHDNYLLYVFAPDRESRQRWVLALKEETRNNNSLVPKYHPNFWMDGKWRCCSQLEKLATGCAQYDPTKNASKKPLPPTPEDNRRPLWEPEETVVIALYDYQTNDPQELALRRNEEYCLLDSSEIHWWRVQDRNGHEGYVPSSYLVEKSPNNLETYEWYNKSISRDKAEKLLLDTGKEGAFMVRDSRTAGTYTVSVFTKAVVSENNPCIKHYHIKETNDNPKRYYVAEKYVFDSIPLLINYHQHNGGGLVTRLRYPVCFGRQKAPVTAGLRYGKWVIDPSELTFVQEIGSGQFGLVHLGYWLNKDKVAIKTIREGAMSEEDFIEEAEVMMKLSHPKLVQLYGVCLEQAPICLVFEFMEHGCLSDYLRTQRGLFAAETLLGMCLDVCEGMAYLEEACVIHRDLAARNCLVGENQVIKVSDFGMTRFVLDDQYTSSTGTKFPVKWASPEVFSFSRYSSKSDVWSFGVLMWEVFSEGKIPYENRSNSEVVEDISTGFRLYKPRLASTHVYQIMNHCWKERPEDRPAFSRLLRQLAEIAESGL
Summary of the method: as §1

EGFR = target: T6, EGFR (Homo sapiens, UniProt P00533); test: Kinase inhibition assay (33P transfer), EGFR; settings: Table 2, kinase inhibition class; for IC50: read-out: EGFR-1
T6 construct: Kinases are expressed as either kinase domains or full length constructs; made in house
T6 sequence (P00533 25-1210, species assumed): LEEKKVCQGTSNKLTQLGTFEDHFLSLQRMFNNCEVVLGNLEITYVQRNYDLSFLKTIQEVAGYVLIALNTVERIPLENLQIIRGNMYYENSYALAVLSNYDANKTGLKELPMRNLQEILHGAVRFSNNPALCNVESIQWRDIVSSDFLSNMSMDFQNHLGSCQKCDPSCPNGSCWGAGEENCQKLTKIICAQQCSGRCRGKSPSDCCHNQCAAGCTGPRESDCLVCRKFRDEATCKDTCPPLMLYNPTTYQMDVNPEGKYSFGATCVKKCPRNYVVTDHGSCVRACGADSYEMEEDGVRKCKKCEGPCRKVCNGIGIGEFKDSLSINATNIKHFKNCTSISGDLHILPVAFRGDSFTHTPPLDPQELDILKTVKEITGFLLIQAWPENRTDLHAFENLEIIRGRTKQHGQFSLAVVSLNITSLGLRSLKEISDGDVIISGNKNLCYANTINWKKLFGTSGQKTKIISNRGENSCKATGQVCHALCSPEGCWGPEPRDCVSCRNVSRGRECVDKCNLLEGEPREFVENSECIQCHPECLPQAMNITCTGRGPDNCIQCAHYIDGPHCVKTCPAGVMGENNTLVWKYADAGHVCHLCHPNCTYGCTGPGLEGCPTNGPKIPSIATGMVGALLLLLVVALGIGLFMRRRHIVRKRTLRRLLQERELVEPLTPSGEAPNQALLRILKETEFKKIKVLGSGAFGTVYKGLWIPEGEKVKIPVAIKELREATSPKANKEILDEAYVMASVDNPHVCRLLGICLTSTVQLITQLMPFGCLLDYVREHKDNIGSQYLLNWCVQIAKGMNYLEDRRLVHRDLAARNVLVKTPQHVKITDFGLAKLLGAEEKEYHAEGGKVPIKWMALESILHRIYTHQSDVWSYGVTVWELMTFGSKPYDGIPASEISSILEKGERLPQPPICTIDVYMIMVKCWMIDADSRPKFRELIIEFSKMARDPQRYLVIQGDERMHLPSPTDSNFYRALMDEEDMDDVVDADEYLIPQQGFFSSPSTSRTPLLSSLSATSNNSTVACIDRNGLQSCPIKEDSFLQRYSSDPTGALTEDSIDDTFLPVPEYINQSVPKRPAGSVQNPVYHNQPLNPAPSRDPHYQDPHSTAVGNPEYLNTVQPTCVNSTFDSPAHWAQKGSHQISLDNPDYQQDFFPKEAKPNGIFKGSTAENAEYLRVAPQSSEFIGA
Summary of the method: as §1

Lck = target: T7, Lck (Homo sapiens, UniProt P06239); test: Kinase inhibition assay (33P transfer), Lck; settings: for IC50: read-out: Lck-1
T7 construct: Kinases are expressed as either kinase domains or full length constructs; made in house
T7 sequence (P06239 whole entry, species assumed, the tested form may be a part): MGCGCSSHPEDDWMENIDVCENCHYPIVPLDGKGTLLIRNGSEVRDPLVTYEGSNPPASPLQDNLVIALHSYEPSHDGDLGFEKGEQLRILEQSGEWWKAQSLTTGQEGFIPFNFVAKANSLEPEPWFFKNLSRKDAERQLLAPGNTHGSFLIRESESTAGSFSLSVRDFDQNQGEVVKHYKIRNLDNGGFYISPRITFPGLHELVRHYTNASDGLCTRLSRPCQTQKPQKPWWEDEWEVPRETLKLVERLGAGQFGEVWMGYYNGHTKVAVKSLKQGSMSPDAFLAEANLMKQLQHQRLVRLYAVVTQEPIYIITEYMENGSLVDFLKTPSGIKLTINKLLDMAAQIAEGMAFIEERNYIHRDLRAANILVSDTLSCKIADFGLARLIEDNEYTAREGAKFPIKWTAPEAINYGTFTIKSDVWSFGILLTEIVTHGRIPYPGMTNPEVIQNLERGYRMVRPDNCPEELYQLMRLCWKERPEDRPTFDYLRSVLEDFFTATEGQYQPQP
Summary of the method: as §2

PDGFRB = target: T8, PDGFRB (Homo sapiens, UniProt P09619); test: Kinase inhibition assay (33P transfer), PDGFRB; settings: for IC50: read-out: PDGFRB-1
T8 construct: Kinases are expressed as either kinase domains or full length constructs; made in house

Kdr = target: T9, Kdr (Homo sapiens, UniProt P35968); test: Kinase inhibition assay (33P transfer), Kdr
T9 construct: Kinases are expressed as either kinase domains or full length constructs; made in house
T9 sequence (P35968 20-1356, species assumed): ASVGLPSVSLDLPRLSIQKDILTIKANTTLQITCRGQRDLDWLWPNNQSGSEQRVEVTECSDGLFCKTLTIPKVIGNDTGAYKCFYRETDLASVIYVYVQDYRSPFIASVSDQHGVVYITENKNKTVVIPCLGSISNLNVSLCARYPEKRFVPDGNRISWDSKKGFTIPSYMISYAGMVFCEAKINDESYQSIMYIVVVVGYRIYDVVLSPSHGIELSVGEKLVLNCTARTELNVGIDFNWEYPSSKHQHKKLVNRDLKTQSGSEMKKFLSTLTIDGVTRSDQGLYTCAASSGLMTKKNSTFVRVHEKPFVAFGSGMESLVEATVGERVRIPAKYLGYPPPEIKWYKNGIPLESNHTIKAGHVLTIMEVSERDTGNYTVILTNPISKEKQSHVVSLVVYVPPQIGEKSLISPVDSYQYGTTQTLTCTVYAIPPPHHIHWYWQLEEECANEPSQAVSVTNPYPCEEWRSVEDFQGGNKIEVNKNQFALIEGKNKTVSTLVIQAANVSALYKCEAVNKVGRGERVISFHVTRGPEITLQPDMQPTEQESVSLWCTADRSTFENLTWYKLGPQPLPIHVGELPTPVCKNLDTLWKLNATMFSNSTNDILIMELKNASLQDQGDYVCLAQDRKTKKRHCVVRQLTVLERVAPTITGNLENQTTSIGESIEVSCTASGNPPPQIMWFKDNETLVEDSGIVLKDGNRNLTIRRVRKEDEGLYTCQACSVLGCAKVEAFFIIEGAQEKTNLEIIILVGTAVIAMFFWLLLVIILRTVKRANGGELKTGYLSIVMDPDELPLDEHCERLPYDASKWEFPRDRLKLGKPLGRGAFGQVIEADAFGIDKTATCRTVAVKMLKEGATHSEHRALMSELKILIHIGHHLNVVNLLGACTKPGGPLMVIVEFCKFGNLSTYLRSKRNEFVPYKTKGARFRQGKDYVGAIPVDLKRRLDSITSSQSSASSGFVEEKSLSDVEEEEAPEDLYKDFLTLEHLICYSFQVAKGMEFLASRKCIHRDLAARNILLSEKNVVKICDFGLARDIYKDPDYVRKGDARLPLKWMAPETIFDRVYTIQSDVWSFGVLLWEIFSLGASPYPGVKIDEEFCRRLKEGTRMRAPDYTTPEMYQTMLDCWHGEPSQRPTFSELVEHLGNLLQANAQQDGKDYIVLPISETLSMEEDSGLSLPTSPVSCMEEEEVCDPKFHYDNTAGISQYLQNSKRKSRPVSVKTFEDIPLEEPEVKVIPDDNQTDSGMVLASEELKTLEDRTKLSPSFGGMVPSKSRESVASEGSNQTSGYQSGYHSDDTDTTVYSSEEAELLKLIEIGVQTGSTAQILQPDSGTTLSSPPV
Summary of the method: as §2

Zap-70 = target: T10, Zap-70 (Homo sapiens, UniProt P43403); test: Kinase inhibition assay (33P transfer), Zap-70; settings: for IC50: read-out: Zap-1
T10 construct: Kinases are expressed as either kinase domains or full length constructs; made in house
T10 sequence (P43403 1-619): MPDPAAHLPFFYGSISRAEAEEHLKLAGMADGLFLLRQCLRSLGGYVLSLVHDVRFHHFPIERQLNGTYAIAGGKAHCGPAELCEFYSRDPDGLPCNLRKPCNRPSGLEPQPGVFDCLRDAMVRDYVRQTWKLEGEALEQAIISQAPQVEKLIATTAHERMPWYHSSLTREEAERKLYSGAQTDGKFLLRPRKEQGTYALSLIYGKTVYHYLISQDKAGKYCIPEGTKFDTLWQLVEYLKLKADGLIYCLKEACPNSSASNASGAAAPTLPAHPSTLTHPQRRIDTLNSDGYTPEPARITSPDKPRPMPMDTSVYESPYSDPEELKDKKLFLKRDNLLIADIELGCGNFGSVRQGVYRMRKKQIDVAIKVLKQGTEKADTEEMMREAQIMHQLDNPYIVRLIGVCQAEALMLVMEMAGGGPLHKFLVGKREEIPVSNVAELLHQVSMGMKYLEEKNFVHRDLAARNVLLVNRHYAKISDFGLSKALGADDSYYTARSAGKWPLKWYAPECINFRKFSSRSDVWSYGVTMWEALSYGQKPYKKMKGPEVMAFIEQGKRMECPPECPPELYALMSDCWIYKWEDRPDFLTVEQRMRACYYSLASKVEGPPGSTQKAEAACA
Summary of the method: as §2

T1 sequence (P08581 25-1390): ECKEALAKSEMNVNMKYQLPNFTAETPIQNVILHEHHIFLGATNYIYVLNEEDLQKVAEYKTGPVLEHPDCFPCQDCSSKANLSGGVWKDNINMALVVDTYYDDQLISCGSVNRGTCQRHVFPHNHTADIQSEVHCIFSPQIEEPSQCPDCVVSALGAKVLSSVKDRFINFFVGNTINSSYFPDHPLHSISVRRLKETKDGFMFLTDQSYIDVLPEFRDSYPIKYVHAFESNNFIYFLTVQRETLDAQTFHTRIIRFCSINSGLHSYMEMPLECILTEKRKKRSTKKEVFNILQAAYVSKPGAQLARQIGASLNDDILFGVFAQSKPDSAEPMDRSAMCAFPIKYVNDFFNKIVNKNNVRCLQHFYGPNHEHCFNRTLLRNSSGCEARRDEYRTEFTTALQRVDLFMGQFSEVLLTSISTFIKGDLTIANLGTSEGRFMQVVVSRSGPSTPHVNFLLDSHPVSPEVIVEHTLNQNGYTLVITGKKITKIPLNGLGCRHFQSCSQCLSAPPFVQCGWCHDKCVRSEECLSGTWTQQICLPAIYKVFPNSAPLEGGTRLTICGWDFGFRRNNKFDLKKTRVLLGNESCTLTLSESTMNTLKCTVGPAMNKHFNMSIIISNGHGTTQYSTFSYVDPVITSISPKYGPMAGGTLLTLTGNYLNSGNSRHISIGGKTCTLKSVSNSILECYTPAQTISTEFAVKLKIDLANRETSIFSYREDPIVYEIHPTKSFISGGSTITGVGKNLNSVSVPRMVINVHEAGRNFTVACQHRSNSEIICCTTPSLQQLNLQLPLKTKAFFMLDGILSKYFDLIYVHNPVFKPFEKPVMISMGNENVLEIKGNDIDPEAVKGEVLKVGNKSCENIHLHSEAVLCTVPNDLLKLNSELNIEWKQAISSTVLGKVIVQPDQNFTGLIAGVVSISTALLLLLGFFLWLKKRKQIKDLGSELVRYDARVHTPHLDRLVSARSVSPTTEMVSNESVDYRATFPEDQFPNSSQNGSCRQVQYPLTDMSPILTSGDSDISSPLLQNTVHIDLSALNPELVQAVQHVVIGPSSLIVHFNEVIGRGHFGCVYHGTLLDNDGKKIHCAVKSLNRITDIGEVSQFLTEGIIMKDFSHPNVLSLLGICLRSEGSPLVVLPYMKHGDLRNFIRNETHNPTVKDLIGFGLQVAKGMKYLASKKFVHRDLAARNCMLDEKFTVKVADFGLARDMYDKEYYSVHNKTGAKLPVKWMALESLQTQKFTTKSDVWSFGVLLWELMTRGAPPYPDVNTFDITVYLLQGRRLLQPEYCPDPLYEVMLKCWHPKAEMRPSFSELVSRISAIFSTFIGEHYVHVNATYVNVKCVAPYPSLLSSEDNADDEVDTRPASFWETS

| Structure (SMILES) | IC50 (c-Met) [µM] | IC50 (IGFR-1) [µM] | IC50 (ErbB2) [µM] | IC50 (AKT) [µM] | IC50 (Itk) [µM] | IC50 (EGFR) [µM] | IC50 (Lck) [µM] | IC50 (PDGFRB) [µM] | IC50 (Kdr; read-out: KDR-1) [µM] | IC50 (Zap-70) [µM] | also measured |
| --- | --- | --- | --- | --- | --- | --- | --- | --- | --- | --- | --- |
| COc1cc(Nc2ncnc(N(C)c3cccc(Cl)c3)n2)cc(OC)c1 [Compound 712] | 1.08 to 6.45 | > 12.1 | < 1.08 | > 12.1 | > 12.1 | < 1.08 | 1.08 to 6.45 | 1.08 to 6.45 | 1.08 to 6.45 | > 12.1 | – |
| CN(c1cccc(Cl)c1)c1ncnc(Nc2ccc(Cl)c(Cl)c2)n1 [Compound 708] | > 11.8 | > 11.8 | > 11.8 | > 11.8 | > 11.8 | > 11.8 | > 11.8 | > 11.8 | > 11.8 | 6.3 to 9.19 | – |
| CN(c1cccc(Cl)c1)c1ncnc(Nc2cccc(Br)c2)n1 [Compound 707] | > 11.5 | > 11.5 | > 11.5 | > 11.5 | > 11.5 | < 1.02 | > 11.5 | > 11.5 | > 11.5 | > 11.5 | – |
| Cc1ccc2c(c1)CCCN2c1ncnc(Nc2cccc(Cl)c2C)n1 [Compound 778] | 1.09 to 6.56 | > 12.3 | 6.56 to 9.57 | 1.09 to 6.56 | > 12.3 | 6.56 to 9.57 | > 12.3 | > 12.3 | 6.56 to 9.57 | > 12.3 | – |
| COc1cc(Nc2ncnc(Nc3ccc4c(cnn4C)c3)n2)cc(OC)c1OC [Compound 557] | > 11 | < 0.982 | < 0.982 | > 11 | 8.59 to 11 | 0.982 to 5.89 | < 0.982 | < 0.982 | 0.982 to 5.89 | > 11 | – |
| COc1cc(Nc2ncnc(-n3c(NCc4ccc(O)cc4)nc4ccccc43)n2)cc(OC)c1OC [Compound 561] | > 9.01 | > 9.01 | > 9.01 | > 9.01 | > 9.01 | > 9.01 | < 0.801 | < 0.801 | – | > 9.01 | IC50 (Kdr; KDR-1): < 0.801 µM |
| Cc1cccc(Nc2ncnc(Nc3ccc4c(cnn4Cc4ccccc4)c3)n2)c1 [Compound 553] | 0.982 to 5.89 | 8.59 to 11 | 0.982 to 5.89 | 5.89 to 8.59 | 8.59 to 11 | < 0.982 | > 11 | 0.982 to 5.89 | 0.982 to 5.89 | 5.89 to 8.59 | – |
| CN(c1cccc(Cl)c1)c1ncnc(Nc2cc(-c3ccco3)[nH]n2)n1 [Compound 753] | 1.09 to 6.53 | 1.09 to 6.53 | 1.09 to 6.53 | > 12.2 | 1.09 to 6.53 | < 1.09 | 1.09 to 6.53 | 1.09 to 6.53 | 1.09 to 6.53 | 1.09 to 6.53 | – |
| Fc1ccc(Nc2ncnc(Nc3ccc4[nH]ccc4c3)n2)cc1Cl [Compound 715] | – | – | – | – | – | – | – | – | – | – | Met-1 (c-Met): C (C>2.4 and <3.5 ug/mL); IGFR-1 (IGFR-1): B (B>0.4 and <2.4 ug/mL); ErbB2-2 (ErbB2): B (B>0.4 and <2.4 ug/mL); AKT3-1 (AKT): D (D>3.5 and <4.5 ug/mL); Itk-1 (Itk): D (D>3.5 and <4.5 ug/mL); EGFR-1 (EGFR): A (A<0.4 ug/mL); Lck-1 (Lck): E (E>4.5 ug/mL); PDGFRB-1 (PDGFRB): B (B>0.4 and <2.4 ug/mL); KDR-1 (Kdr): B (B>0.4 and <2.4 ug/mL); Zap-1 (Zap-70): C (C>2.4 and <3.5 ug/mL) |
| COc1ccc(Nc2ncnc(N3CCCc4ccc(C)cc43)n2)cc1OC [Compound 567] | 1.06 to 6.36 | > 11.9 | 6.36 to 9.27 | > 11.9 | > 11.9 | < 1.06 | 1.06 to 6.36 | 1.06 to 6.36 | < 1.06 | > 11.9 | – |
| CCN1CCCC1CNc1ncnc(Nc2ccc(OC)c(OC)c2)n1 (centres unmarked) [Compound 781] | > 12.6 | > 12.6 | > 12.6 | > 12.6 | > 12.6 | > 12.6 | > 12.6 | 1.12 to 6.7 | > 12.6 | > 12.6 | – |
| CN(c1cccc(Cl)c1)c1ncnc(Nc2ccncc2)n1 [Compound 756] | 1.28 to 7.67 | > 14.4 | > 14.4 | > 14.4 | > 14.4 | < 1.28 | 1.28 to 7.67 | 1.28 to 7.67 | > 14.4 | > 14.4 | – |
| COC(=O)Cc1cccc(Nc2ncnc(-n3c(NCc4ccccn4)nc4ccccc43)n2)c1 [Compound 547] | > 9.65 | > 9.65 | > 9.65 | > 9.65 | > 9.65 | > 9.65 | > 9.65 | > 9.65 | < 0.857 | > 9.65 | – |
| c1ccc(Cn2ncc3cc(Nc4ncnc(Nc5ncccn5)n4)ccc32)cc1 [Compound 738] | > 11.4 | 1.01 to 6.07 | 6.07 to 8.85 | > 11.4 | 1.01 to 6.07 | 1.01 to 6.07 | > 11.4 | > 11.4 | > 11.4 | > 11.4 | – |
| COc1cc(Nc2ncnc(Nc3ccc4c(c3)CCC4)n2)cc(OC)c1OC [Compound 629] | 6.1 to 8.9 | < 1.02 | 1.02 to 6.1 | > 11.4 | 1.02 to 6.1 | 1.02 to 6.1 | < 1.02 | < 1.02 | 1.02 to 6.1 | 6.1 to 8.9 | – |
| CC(=O)c1ccc(Nc2ncnc(Nc3ccc4c(cnn4Cc4ccccc4)c3)n2)cc1 [Compound 730] | 0.919 to 5.51 | 0.919 to 5.51 | 0.919 to 5.51 | 5.51 to 8.04 | 0.919 to 5.51 | < 0.919 | 5.51 to 8.04 | 0.919 to 5.51 | 0.919 to 5.51 | 0.919 to 5.51 | – |
| CN(c1cccc(Cl)c1)c1ncnc(Nc2cccc(Cc3nnn[nH]3)c2)n1 [Compound 720] | < 1.02 | > 11.4 | < 1.02 | > 11.4 | > 11.4 | < 1.02 | 1.02 to 6.09 | 1.02 to 6.09 | 1.02 to 6.09 | 6.09 to 8.89 | – |
| CN(c1cccc(Cl)c1)c1ncnc(Nc2ccc3cn[nH]c3c2)n1 [Compound 718] | > 12.8 | > 12.8 | > 12.8 | 9.95 to 12.8 | > 12.8 | < 1.14 | > 12.8 | 6.82 to 9.95 | > 12.8 | 9.95 to 12.8 | – |
| COC(=O)c1ccc(-c2cc(Nc3ncnc(Nc4cccc(C(N)=O)c4)n3)[nH]n2)cc1 [Compound 990] | 5.58 to 8.13 | 0.929 to 5.58 | > 10.5 | > 10.5 | 5.58 to 8.13 | > 10.5 | > 10.5 | > 10.5 | > 10.5 | > 10.5 | – |
| COc1cc(Nc2ncnc(NCCc3ccccc3)n2)cc(OC)c1OC [Compound 628] | > 11.8 | 1.05 to 6.29 | > 11.8 | > 11.8 | > 11.8 | 1.05 to 6.29 | 1.05 to 6.29 | 1.05 to 6.29 | 6.29 to 9.18 | > 11.8 | – |

Source: patent US7074789B2, “Kinase inhibitors” (Amgen Inc., priority 1999, dated 2006)
